Values quoted from earlier work, collected in patent EP2392318A1 (Laboratorios Liconsa, S.A., priority 2010, dated 2011).

terminal half-life (after being orally administered): about 2 hours
orally absorbed (in the gastrointestinal tract): about 33%
Structure (SMILES): CCCCc1nc(Cl)c(CO)n1Cc1ccc(-c2ccccc2-c2nn[nH]n2)cc1 [losartan, 2-butyl-4-chloro-1-[[2'-(1H-tetrazol-5-yl)[1,1'-biphenyl]-4-yl]methyl]-1H-imidazole-5-methanol]
